Test results reported in patent US20090306133A1, “New Acetyl Coenzyme A Carboxylase (ACC) Inhibitors And Uses In Treatments Of Obesity And Diabetes Mellitus - 087” (ASTRAZENECA AB, priority 2007, published 2009).

What was measured:
[1] = molecular target: Human recombinant Acetyl-CoA Carboxylase 2 (ACC2) (Homo sapiens, UniProt O00763); assay: Assay Y: ACC2 inhibition, inorganic phosphate (Malachite Green); format: biochemical; settings: Assay Y: room temperature, 3 hr, 15 min preincubation
Protocol: (§1) Preincubation of 6 μL enzyme together with 0.3 μL compound for 15 min was done before the reaction was initiated by the addition of 4 μL substrate. […] After 3 hr the reaction was stopped by addition of 60 μL of water followed by 30 μL Malachite Green solution. The Malachite Green solution was prepared by mixing 16.4 mL ammonium molybdate solution (7.5%), 1.64 mL Tween (11%) with 82 mL Malachite Green/H2SO4-solution (0.7 g Malachite Green to 1000 mL of 10% (v/v) H2SO4). Plates were left for 10 min at room temperature before reading the absorbance at 670 nm. All compounds were tested in triplicate at 10 different concentrations. Control compound (0, 50 and 100% effect) was included on each plate. […] An IC50 value was derived by non-linear regression curve fitting using the following equation: […]))) where A is the non-specific binding, B is the total binding, C is the IC50 and D is the slope. Saturation binding Kd and Bmax were derived using the equation y=((B1 max*x)/(Kd+x)).

[2] = molecular target: Human recombinant Acetyl-CoA Carboxylase 1 (ACC1) (Homo sapiens, UniProt Q13085); assay: Assay Y: ACC1 inhibition, inorganic phosphate (Malachite Green); format: biochemical; settings: Assay Y: room temperature, 3 hr, 15 min preincubation
Protocol: as §1

Sequence of Human recombinant Acetyl-CoA Carboxylase 2 (ACC2) (O00763 whole entry): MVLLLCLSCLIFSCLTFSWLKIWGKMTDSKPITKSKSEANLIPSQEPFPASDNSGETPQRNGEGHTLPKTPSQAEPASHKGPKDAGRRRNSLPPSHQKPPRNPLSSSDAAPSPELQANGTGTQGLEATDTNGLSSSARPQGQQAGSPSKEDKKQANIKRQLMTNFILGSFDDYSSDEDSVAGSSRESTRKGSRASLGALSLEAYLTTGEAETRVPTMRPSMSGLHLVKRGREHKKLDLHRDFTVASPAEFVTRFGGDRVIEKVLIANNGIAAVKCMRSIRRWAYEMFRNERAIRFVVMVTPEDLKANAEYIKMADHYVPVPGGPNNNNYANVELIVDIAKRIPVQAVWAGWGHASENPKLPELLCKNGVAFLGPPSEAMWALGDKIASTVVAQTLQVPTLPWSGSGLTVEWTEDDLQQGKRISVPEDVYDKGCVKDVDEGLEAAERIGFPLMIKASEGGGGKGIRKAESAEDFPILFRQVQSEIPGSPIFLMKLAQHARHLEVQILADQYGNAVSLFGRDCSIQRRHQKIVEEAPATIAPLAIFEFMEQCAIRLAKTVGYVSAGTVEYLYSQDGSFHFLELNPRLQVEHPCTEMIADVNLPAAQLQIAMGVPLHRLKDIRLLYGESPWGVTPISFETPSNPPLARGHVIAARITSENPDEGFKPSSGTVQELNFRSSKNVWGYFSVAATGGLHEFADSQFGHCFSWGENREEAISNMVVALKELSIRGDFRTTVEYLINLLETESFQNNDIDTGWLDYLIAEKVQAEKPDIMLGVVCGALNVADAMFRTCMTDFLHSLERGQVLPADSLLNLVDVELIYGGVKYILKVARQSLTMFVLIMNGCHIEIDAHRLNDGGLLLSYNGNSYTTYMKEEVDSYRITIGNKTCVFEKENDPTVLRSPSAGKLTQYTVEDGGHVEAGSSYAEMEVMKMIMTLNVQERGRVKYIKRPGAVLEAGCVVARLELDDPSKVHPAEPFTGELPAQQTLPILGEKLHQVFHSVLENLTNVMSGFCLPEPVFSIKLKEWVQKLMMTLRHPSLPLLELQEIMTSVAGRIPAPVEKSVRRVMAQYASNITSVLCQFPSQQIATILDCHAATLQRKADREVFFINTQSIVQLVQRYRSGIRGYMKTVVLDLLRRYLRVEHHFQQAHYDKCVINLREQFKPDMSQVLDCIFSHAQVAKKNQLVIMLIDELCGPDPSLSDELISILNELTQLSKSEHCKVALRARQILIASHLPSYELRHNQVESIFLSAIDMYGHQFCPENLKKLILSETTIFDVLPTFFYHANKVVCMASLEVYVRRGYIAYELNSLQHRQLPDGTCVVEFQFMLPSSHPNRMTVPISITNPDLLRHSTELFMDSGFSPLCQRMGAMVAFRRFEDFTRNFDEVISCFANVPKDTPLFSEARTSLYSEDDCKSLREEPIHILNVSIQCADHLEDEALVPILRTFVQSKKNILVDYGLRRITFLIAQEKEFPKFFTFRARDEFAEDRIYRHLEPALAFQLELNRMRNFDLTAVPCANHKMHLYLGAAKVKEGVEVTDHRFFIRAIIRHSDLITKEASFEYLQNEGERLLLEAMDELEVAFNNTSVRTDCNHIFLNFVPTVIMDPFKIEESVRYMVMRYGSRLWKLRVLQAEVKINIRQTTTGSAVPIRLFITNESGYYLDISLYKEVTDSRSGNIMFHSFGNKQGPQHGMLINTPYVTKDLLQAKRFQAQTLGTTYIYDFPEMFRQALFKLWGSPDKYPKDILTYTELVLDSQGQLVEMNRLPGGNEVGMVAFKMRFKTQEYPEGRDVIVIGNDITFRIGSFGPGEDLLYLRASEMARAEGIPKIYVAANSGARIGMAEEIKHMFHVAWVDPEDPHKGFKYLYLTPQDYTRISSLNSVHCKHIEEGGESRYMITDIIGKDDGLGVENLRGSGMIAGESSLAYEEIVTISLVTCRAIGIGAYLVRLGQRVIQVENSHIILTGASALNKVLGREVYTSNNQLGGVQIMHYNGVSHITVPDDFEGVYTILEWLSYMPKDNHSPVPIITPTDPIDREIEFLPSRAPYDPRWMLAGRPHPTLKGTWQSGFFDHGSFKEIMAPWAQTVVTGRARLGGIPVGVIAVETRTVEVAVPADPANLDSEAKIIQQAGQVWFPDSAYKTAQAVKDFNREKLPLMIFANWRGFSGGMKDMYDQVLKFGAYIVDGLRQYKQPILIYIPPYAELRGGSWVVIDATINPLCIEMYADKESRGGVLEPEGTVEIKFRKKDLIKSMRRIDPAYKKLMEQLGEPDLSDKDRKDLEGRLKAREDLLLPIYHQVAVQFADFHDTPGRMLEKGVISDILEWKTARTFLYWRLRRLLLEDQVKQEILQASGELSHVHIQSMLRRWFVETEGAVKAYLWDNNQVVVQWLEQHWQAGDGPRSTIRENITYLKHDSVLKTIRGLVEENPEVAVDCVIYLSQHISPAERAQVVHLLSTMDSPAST

SMILES | IC50 [1] | IC50 [2]
CC(C)(C)OC(=O)NC[C@H]1CC[C@H](CNC(=O)c2cc(-c3cccc(C(N)=O)c3)nc3ccccc23)CC1 [Example 8, tert-Butyl ({trans-4-[({[2-(3-carbamoylphenyl)quinolin-4-yl]carbonyl}amino)methyl]-cyclohexyl}methyl)carbamate] | 80 nM | 310 nM
CC(C)OC(=O)NC[C@H]1CC[C@H](CNC(=O)c2cc(-c3ccncc3)nc3ccccc23)CC1 [Example 57, Isopropyl {[trans-4-({[(2-pyridin-4-ylquinolin-4-yl)carbonyl]amino}methyl)cyclo-hexyl]methyl}carbamate] | 800 nM | 1910 nM
Cc1nc(-c2cccc(S(=O)(=O)NC[C@H]3CC[C@H](CNC(=O)OC(C)(C)C)CC3)c2)no1 [Example 75, tert-Butyl ({trans-4-[({[3-(5-methyl-1,2,4-oxadiazol-3-yl)phenyl]sulfonyl}amino)-methyl]cyclohexyl}methyl)carbamate] | 4270 nM | > 20000 nM
CCN(C[C@H]1CC[C@H](CNC(=O)OC(C)(C)C)CC1)S(=O)(=O)c1ccc2ccccc2c1 [Example 79, tert-Butyl [(trans-4-{[ethyl(2-naphthylsulfonyl)amino]methyl}cyclohexyl)methyl]-carbamate] | 5400 nM | > 20000 nM
CCN(C[C@H]1CC[C@H](CNC(=O)OC(C)(C)C)CC1)S(=O)(=O)c1ccc(-c2csc(C)n2)s1 [Example 90, tert-Butyl ({trans-4-[(ethyl {[5-(2-methyl-1,3-thiazol-4-yl)-2-thienyl]sulfonyl}amino)-methyl]cyclohexyl}methyl)carbamate] | 2010 nM | > 20000 nM
CC(C)(C)OC(=O)NC[C@H]1CC[C@H](CNC(=O)c2cc(-c3cccnc3)nc3ccccc23)CC1 [Example 16, tert-Butyl {[trans-4-({[(2-pyridin-3-ylquinolin-4-yl)carbonyl]amino}methyl)cyclo-hexyl]methyl}carbamate] | 320 nM | 2030 nM
CC(C)(C)OC(=O)NC[C@H]1CC[C@H](CNC(=O)c2cncc(-c3ccccc3)c2)CC1 [Example 44, tert-Butyl {[trans-4-({[(5-phenylpyridin-3-yl)carbonyl]amino}methyl)cyclohexyl]-methyl}carbamate] | 9710 nM | 13000 nM
CCOc1ccc(-c2cc(C(=O)NC[C@H]3CC[C@H](CNC(=O)OC(C)(C)C)CC3)ccn2)cn1 [Example 46, tert-Butyl {[trans-4-({[(6′-ethoxy-2,3′-bipyridin-4-yl)carbonyl]amino}methyl)cyclohexyl]methyl}carbamate] | 9530 nM | > 20000 nM
CC(C)(C)OC(=O)NC[C@H]1CC[C@H](CNC(=O)c2cc(-c3ccc(C(N)=O)nc3)nc3ccccc23)CC1 [Example 5, tert-Butyl ({trans-4-[({[2-(6-carbamoylpyridin-3-yl)quinolin-4-yl]carbonyl}amino)-methyl]cyclohexyl}methyl)carbamate] | 260 nM | 1220 nM
CC(C)(C)OC(=O)NC[C@H]1CC[C@H](CN(CCc2ccccc2)S(=O)(=O)c2ccc3ccccc3c2)CC1 [Example 80, tert-Butyl [(trans-4-{[(2-naphthylsulfonyl)(2-phenylethyl)amino]methyl}cyclohexyl)-methyl]carbamate] | 3010 nM | > 20000 nM
CN(C)CCCOc1ccc(-c2cc(C(=O)NC[C@H]3CC[C@H](CNC(=O)OC(C)(C)C)CC3)c3ccccc3n2)cn1 [Example 10, tert-Butyl {[trans-4-({[(2-{6-[3-(dimethylamino)propoxy]pyridin-3-yl}quinolin-4-yl)carbonyl]amino}methyl)cyclohexyl]methyl}carbamate] | 40 nM | 300 nM
CC(C)(C)OC(=O)NC[C@H]1CC[C@H](CN(CC(F)(F)F)S(=O)(=O)c2ccc3ccccc3c2)CC1 [Example 86, tert-Butyl [(trans-4-{[(2-naphthylsulfonyl)(2,2,2-trifluoroethyl)amino]methyl}cyclo-hexyl)methyl]carbamate] | 6980 nM | > 20000 nM
CC(C)(C)OC(=O)NC[C@H]1CC[C@H](CN(CC#N)S(=O)(=O)c2ccc3ccccc3c2)CC1 [Example 83, tert-Butyl [(trans-4-{[(cyanomethyl)(2-naphthylsulfonyl)amino]methyl}cyclohexyl)-methyl]carbamate] | 3270 nM | > 20000 nM
CCOC(=O)NC[C@H]1CC[C@H](CNC(=O)c2cc(-c3cccc(C(N)=O)c3)nc3ccccc23)CC1 [Example 19, Ethyl ({trans-4-[({[2-(3-carbamoylphenyl)quinolin-4-yl]carbonyl}amino)methyl]-cyclohexyl}methyl)carbamate] | 780 nM | 1210 nM
COc1cccc(-c2cc(C(=O)NC[C@H]3CC[C@H](CNC(=O)OC(C)(C)C)CC3)c3ccccc3n2)c1 [Example 22, tert-Butyl ({trans-4-[({[2-(3-methoxyphenyl)quinolin-4-yl]carbonyl}amino)-methyl]cyclohexyl}methyl)carbamate] | 310 nM | 1010 nM
Cc1cc(C(=O)NC[C@H]2CC[C@H](CNC(=O)OC(C)(C)C)CC2)cc(-c2ccccc2)n1 [Example 43, tert-Butyl [(trans-4-{[(2-methyl-6-phenylisonicotinoyl)amino]methyl}cyclohexyl)-methyl]carbamate] | 5820 nM | 8310 nM
CC(C)(C)OC(=O)NC[C@H]1CC[C@H](CNC(=O)c2cc(-c3ccc(CN)cc3)ncc2Cl)CC1 [Example 37, tert-Butyl ({trans-4-[({2-[4-(aminomethyl)phenyl]-5-chloroisonicotinoyl}amino)-methyl]cyclohexyl}methyl)carbamate] | 470 nM | 3690 nM
CC(C)(C)OC(=O)NC[C@H]1CC[C@H](CNS(=O)(=O)c2cccc3cnccc23)CC1 [Example 76, tert-Butyl [(trans-4-{[(isoquinolin-5-ylsulfonyl)amino]methyl}cyclohexyl)-methyl]carbamate] | 3620 nM | > 20000 nM

Now from value to compound:

IC50 [1] | IC50 [2] | SMILES
80 nM | 380 nM | CC(C)(C)OC(=O)NC[C@H]1CC[C@H](CNC(=O)c2cc(-c3ccc(S(N)(=O)=O)cc3)nc3ccccc23)CC1 [Example 135, tert-Butyl [(trans-4-{[({2-[4-(aminosulfonyl)phenyl]-quinolin-4-yl}carbonyl)amino]-methyl}-cyclohexyl)methyl]-carbamate]
620 nM | 3070 nM | CNS(=O)(=O)c1ccc(-c2cc(C(=O)NC[C@H]3CC[C@H](CNC(=O)OC4CCOCC4)CC3)c3ccccc3n2)cc1 [Example 136, Tetrahydro-2H-pyran-4-yl{[trans-4-({[(2-{4-[(methylamino)sulfonyl]phenyl}quinolin-4-yl)carbonyl]amino}methyl)cyclohexyl]methyl}-carbamate]
40 nM | 200 nM | CC(=O)NCc1ccc(-c2cc(C(=O)NC[C@H]3CC[C@H](CNC(=O)OC(C)(C)C)CC3)c3ccccc3n2)cc1 [Example 103, tert-Butyl [(trans-4-{[({2-[4-(acetamidomethyl)phenyl]quinolin-4-yl}carbonyl)-amino]methyl}cyclohexyl)methyl]carbamate]
180 nM | 1260 nM | CN1CCN(c2ccc(-c3cc(C(=O)NC[C@H]4CC[C@H](CNC(=O)O[C@H]5CCOC5)CC4)c4ccccc4n3)cn2)CC1 [Example 116, (3S)-Tetrahydrofuran-3-yl-[(trans-4-{[({2-[6-(4-methylpiperazin-1-yl)pyridin-3-yl]quinolin-4-yl}carbonyl)amino]methyl}cyclohexyl)methyl]carbamate]
60 nM | 280 nM | CC(C)(C)OC(=O)NC[C@H]1CC[C@H](CNC(=O)c2cc(-c3ccc(N4CCOCC4)nc3)nc3ccccc23)CC1 [Example 145, tert-Butyl({trans-4-[({[2-(6-morpholin-4-ylpyridin-3-yl)-quinolin-4-yl]carbonyl}amino)-methyl]cyclohexyl}methyl)carbamate]
1060 nM | 6910 nM | CN1CCN(CCCOc2cc(C(=O)NC[C@H]3CC[C@H](CNC(=O)OC(C)(C)C)CC3)c3ccccc3n2)CC1 [Example 180, tert-Butyl [(trans-4-{[({2-[3-(4-methylpiperazin-1-yl)propoxy]quinolin-4-yl}carbonyl)amino]methyl}cyclohexyl)methyl]carbamate]
130 nM | > 20000 nM | CC(=O)N1CCN(c2ccc(-c3cc(C(=O)NC[C@H]4CC[C@H](CNC(=O)OC(C)(C)C)CC4)c4ccccc4n3)cn2)CC1 [Example 142, tert-Butyl [(trans-4-{[({2-[6-(4-acetylpiperazin-1-yl)pyridin-3-yl]quinolin-4-yl}carbonyl)amino]methyl}cyclohexyl)methyl]carbamate]
2300 nM | 4820 nM | CN(C[C@H]1CC[C@H](CNC(=O)OC(C)(C)C)CC1)C(=O)c1cc(-c2ccccc2)nc2ccccc12 [Example 91, tert-Butyl {[trans-4-({methyl[(2-phenylquinolin-4-yl)carbonyl]amino}methyl)cyclo-hexyl]methyl}carbamate]
20 nM | 170 nM | CC(C)(C)OC(=O)NC[C@H]1CC[C@H](CNC(=O)c2cc(-c3ccc(CCN)cc3)nc3ccccc23)CC1 [Example 102, tert-Butyl [(trans-4-{[({2-[4-(2-aminoethyl)phenyl]quinolin-4-yl}carbonyl)amino]-methyl}cyclohexyl)methyl]carbamate]
